{"source": "patent US11590117B2", "about": "“Treatment of a hematologic malignancy with 2-(4-chlorophenyl)-n-((2-(2,6-dioxopiperidin-3-yl)-1-oxoisoindolin-5-yl)methyl)-2,2-difluoroacetamide” (priority 2016, dated 2023)", "key": {"[1]": {"test_system": "HNT-34", "test": "Flow cytometry viable cell counting, 72 hours", "assay_type": "cell-based", "settings": "Homo sapiens, HNT-34 as sensitive positive control cell line in PBMC comparison, read-out: cell count IC50", "experimental": "(§1) The effects of Compound 1 in healthy PBMCs were also assessed. Compound 1 was added to PBMC s from one donor at time zero and assessed at 72 hours. This was compared to PBMCs that were pre-activated and proliferating on anti-CD3 antibody-coated plates for 72 hours before Compound 1 was added and the cells were incubated for an additional 72 hours. HNT-34 cells were used as a sensitive positive control cell line. Peripheral blood mononuclear cells that were pre-activated were resistant to the antiproliferative effects of Compound 1 (IC50>[…]) as determined by CTG and viable cell count. However, Compound 1 did reduce cell proliferation in PBMCs that were not pre-activated, as measured using two methods, CTG and flow cytometry cell counting (CTG IC50=0.1 μM; cell count IC50=0.5 μM). […] Similar or greater differences in Compound 1-induced elevation of caspase 3/7 and membrane depolarization were seen between pre-activated PBMCs and HNT-34 cells."}, "[2]": {"test_system": "PBMCs", "test": "Flow cytometry viable cell counting, 72 hours", "assay_type": "cell-based", "settings": "Homo sapiens, PBMC, PBMCs not pre-activated, read-out: cell count IC50", "experimental": "as §1"}, "[3]": {"test_system": "HNT-34 cells", "test": "Compound 1 washout assay (glutarimide washout, viability at 72 hours)", "assay_type": "cell-based, human", "settings": "viability after 72 hours", "experimental": "Compound 1 Washout Assay: For washout experiments, AML cell lines were plated in U-bottom 96-well plates at a density of 60,000 cells per well. All cells were treated at time zero (t=0) with Compound 1, then, at each time point, cells were resuspended in washout media containing glutarimide at 1000-fold excess over the compound working concentration (eg, 100 μM glutarimide for washout of 100 nM compound treatment). At the end of the incubation period, the plates were centrifuged for 3 minutes at 200 g, supernatant was removed, and cells were resuspended in 100 μL/well 1× Annexin V binding buffer containing Annexin V (2.5 μL/well) and 7-AAD (5 μL/well). Flow cytometry was performed using a BD FACSarray instrument and results were quantified using FlowJo software. At the same time, CTG was added to the 96-(black) well plates and processed as described above in the cell proliferation assay.\nIn order to determine at what time point Compound 1 causes AML cell lines to commit to apoptosis, washout experiments were performed at different time points, and the cell viability was assessed after 72 hours (see schematic in FIG. 30 A). Compound 1 (100 nM) irreversibly committed the cells to apoptosis within 8 to 16 hours of treatment (FIG. 30 B). Washing out 100 nM Compound 1 between 1 and 4 hours reduced the potency (right-shift in the EC50 curve) by ˜10-fold."}, "[4]": {"test_system": "PBMCs", "test": "CellTiter-Glo (CTG) cell proliferation assay, 72 hours, anti-CD3 stimulated", "assay_type": "cell-based, human", "settings": "for IC50: Homo sapiens, PBMC", "experimental": "Preparation of Solutions of Test Article: Compounds were plated into black 384-well plates (Corning Inc.) to a final DMSO volume of 0.1% assuming a maximal volume of 50 μL. A 10-point dose response starting at 10 μM with a 1:3 dilution was printed in duplicate by acoustic dispense using the EDC ATS-100 platform.\nCell Proliferation Assays: The effect of Compound 1 on the proliferation/viability of the hematological cell lines (Table 1 Table, Table 2 and Table 3), THLE-2, or PBMCs was assessed after 72 hours incubation using CTG (Promega), according to manufacturer's instructions. Hematological cell lines were dispensed into compound plates by a Multidrop™ Combi Reagent Dispenser (Thermo Scientific, Waltham, Mass.) at a concentration of 0.1 to 0.3×10^6 cells per mL in a 50 μL total volume. THLE-2 cells were seeded out at 1000 cells per well in 50 μL volume and incubated for 72 hours. At 72 hours, 25 μL per well of CTG was dispensed by a Multidrop™ Combi Reagent Dispenser and adenosine triphosphate (ATP) release by viable cells was measured as relative luminescence units after 30 minutes using the Envision platform.\nFor frozen PBMCs, cells were thawed at 37° C. for 2 minutes in RPMI with 10% FBS and cell counts and viability were measured on the ViCell as previously described. Peripheral blood mononuclear cells were washed and diluted to 1×10^6 cells per mL and dispensed by a Multidrop™ Combi Reagent Dispenser in a volume of 25 μL/well into the compound plates and incubated for 2 hours. After 2 hours, 25 μL of anti-CD3 antibody-bound beads (1 cell. 2 anti-human CD3 antibody-coated M-450 beads) were dispensed per well and incubated for a further 72 hours. After 72 hours, 15 μL of supernatants were collected for the analysis of interleukin (IL)-2 release using the Human IL-2 384-well Tissue Culture Kit (Meso Scale Diagnostics), according to the manufacturer's instructions, and the remaining cell suspension was processed with CTG.\nIn order to calculate the therapeutic window for Compound 1, the compound was counter-screened against the immortalized (but non-tumorigenic) human hepatocyte-derived cell line THLE-2 (Pfeifer, et al, Proc Natl Acad Sci USA 1993 90(11):5123-5127) and against primary human PBMCs. […] The Compound 1 therapeutic window for the 10 sensitive AML cell lines as compared to THLE-2 cells ranged from 4.1 (KG-1a) to 57 (HNT-34) (method 1) or from 5.7 (KG-1a) to 79.5 (HNT-34) (method 2); the Compound 1 therapeutic window as compared to PBMCs ranged from 2.6 (KG-1a) to 36 (HNT-34)), or from 1.5 (KG-1a) to 21 (HNT-34) (Table 6).\nCultures of 11 different AML cell lines were incubated 72 hours with Compound 1 at concentrations of 0.5 nM to 10 μM. Proliferation was assessed using the CellTitre-Glo® assay. Results for cultures incubated with Compound 1 were normalized to results for control cultures for each cell line. Inhibition of cell growth was also determined in THLE-2 cells at Compound 1 concentrations of 0.1 nM to 100 μM and in PBMCs at Compound 1 concentrations of 0.5 nM to […]. The Compound 1 therapeutic window was calculated using area under the curve (AUC; Activity Area [Barretina et al, Nature (2012) 483603-607] measurements (in arbitrary units) as determined using GraphPad Prism software for plots of cell proliferation vs concentration and dividing the AUC for the immortalized (but nontumorigenic) human THLE-2 hepatocyte cell line or PBMCs by the AUC for the AML cell line.\nThe effects of Compound 1 in healthy PBMCs were also assessed. Compound 1 was added to PBMC s from one donor at time zero and assessed at 72 hours. This was compared to PBMCs that were pre-activated and proliferating on anti-CD3 antibody-coated plates for 72 hours before Compound 1 was added and the cells were incubated for an additional 72 hours. HNT-34 cells were used as a sensitive positive control cell line. […]"}}, "data": [{"smiles": "O=C1CCC(N2Cc3cc(CNC(=O)C(F)(F)c4ccc(Cl)cc4)ccc3C2=O)C(=O)N1", "note": "(stereo not shown) [Compound 1, 2-(4-chlorophenyl)-N-((2-(2,6-dioxopiperidin-3-yl)-1-oxoisoindolin-5-yl)methyl)-2,2-difluoroacetamide]", "values": [{"measurement": "IC50", "setting": "[1]", "value": 0.004, "unit": "µM"}, {"measurement": "IC50", "setting": "[2]", "value": 0.5, "unit": "µM"}, {"measurement": "reduction of potency on washout", "setting": "[3]; washout at 8 to 16 hours", "value": "~4", "unit": "fold"}, {"measurement": "reduction of potency (right-shift in the EC50 curve) on washout", "setting": "[3]; washout between 1 and 4 hours", "value": "~10", "unit": "fold"}, {"measurement": "IC50", "setting": "[4]; 72 h, PBMCs not pre-activated, 72 hours, read-out: CTG IC50", "value": 0.1, "unit": "µM"}, {"measurement": "IC50", "setting": "[4]; 72 h, pre-activated PBMCs (72 hours on anti-CD3 plates before compound), 72 hours, CTG and viable cell count, read-out: antiproliferative IC50", "value": "> 10", "unit": "µM"}, {"measurement": "IC50", "setting": "[4]; 72 h, primary human PBMCs, 72 hours, read-out: antiproliferative IC50", "value": 0.12, "unit": "µM"}, {"measurement": "IC50", "setting": "[4]; pre-activated PBMCs, CTG and viable cell count, read-out: antiproliferative IC50", "value": "> 10", "unit": "µM"}, {"measurement": "AUC Method 1", "setting": "[4]; PBMCs normal cells", "value": 251.1, "unit": "arbitrary units"}, {"measurement": "AUC Method 2", "setting": "[4]; PBMCs normal cells", "value": 145.1, "unit": "arbitrary units"}]}]}
